Assay results published in PMC8448819, “The Arabidopsis MIK2 receptor elicits immunity by sensing a conserved signature from phytocytokines and microbes” (Nature Communications, 2021).
Values joined by “and” are separate entries in the source; they are usually repeats but may differ in a detail not shown here. Identical values can stand only once. Like-named read-outs stand apart in the source and are kept apart here.

Legend:
Assay type in all cases: in vivo, Arabidopsis thaliana
[1] = system: MPK3, MPK4 and MPK6 phosphorylation, mik2-1 seedlings; test: MAPK assay (α-pERK1/2 immunoblot), mik2-1; parameters: dose or concentration left out as unconfirmed; conditions: mik2-1, α-pERK1/2 immunoblot
[2] = system: mik2-1 and mik2-2 mutant seedlings; conditions: for Root length (Fig. 3d) / Root length (Fig. 3b) / Root length (Fig. 3e): individual values, one per line
mik2 mutant seedlings = test: ROS assay (luminol), mik2 mutants
Procedure: (§1) ROS burst was determined by a luminol-based assay. […] Then, ddH2O was replaced by 200 µL of reaction solution containing 50 µM of luminol, and 10 µg/mL of horseradish peroxidase (Sigma-Aldrich) supplemented with or without 100 nM or 1 μM peptide. Luminescence was measured immediately after adding the solution with a luminometer (Glomax 20/20n, Promega) with a one-second interval for 15 min. The total values of ROS production were indicated as means of the relative light units (RLUs).

Arabidopsis WT seedlings = test: ROS assay (luminol), WT seedlings; conditions: for ROS production, total luminescence (Fig. 2h): WT seedlings; for ROS production, total luminescence (Fig. 3f): WT
Procedure: as §1

[3] = system: Arabidopsis WT seedling roots; test: Microscopy of root browning and root meristems, WT
[4] = system: MYB51 promoter, pMYB51::GUS seedling roots; test: Histochemical GUS staining, pMYB51::GUS; conditions: pMYB51::GUS seedlings, 1 µM, 3 h
Source text: Stained samples were fixed with a 3:1 ethanol:acetic acid solution overnight and cleared by lactic acid and photographed with the Olympus SZX10 stereoscopic microscope equipped with DP27 camera.

[5] = system: gene expression, WT Col-0 seedlings; test: RNA-Seq, WT Col-0; conditions: for gene expression fold change: WT, 1 μM PIP1 vs Ctrl, 1 h
Procedure: (§2) Seedlings were then treated with or without 1 μM PIP1 or SCOOP12 for 1 or 6 h and harvested for RNA isolation. Total RNAs (5 μg) from two biological replicates were pooled for cDNA library construction. cDNA library preparation and sequencing were carried out on an Illumina HiSeq 4000 platform with 150-nucleotide pair-end reads in LC-BIO (Hangzhou, China). Total reads were mapped to the Arabidopsis genome (TAIR10; www.arabidopsis.org) with Hisat, and the read counts for every gene were generated with StringTie. The expression levels of genes were calculated by quantifying the cDNA fragments per kilobase of transcript per million fragments mapped (FPKM). Differentially expressed genes (DEGs) between different treatments were defined by fold change of read counts at 1 and 6 h compared to that at 0 h (differential expression analysis using edgeR, fold change ≥ 2 with p-value ≤ 0.01). DEGs were listed in Supplementary Data 2.

[6] = system: gene expression, RLK7^ECD-MIK2^TK/rlk7 seedlings; test: RNA-Seq, RLK7^ECD-MIK2^TK/rlk7; conditions: for gene expression fold change: RLK7ECD-MIK2TK/rlk7, 1 μM PIP1 vs Ctrl, 1 h
Procedure: as §2

[7] = system: RLK7^ECD-MIK2^TK/rlk7 and RLK7/rlk7 transgenic seedlings; test: ROS assay (luminol), RLK7/rlk7 and RLK7^ECD-MIK2^TK/rlk7 seedlings; conditions: for ROS production, total: Fig. 1d
Procedure: as §1

Q: How did the “MAPK activation in mik2” value [1] turn out when “PNGDIFTGPSGSGHGGGR [SCOOP10B, synthesized SCOOP peptide corresponding to the SxS motif]” was run?
A: Its value is “abolished in mik2 mutants”.

Q: And the “root growth retardation, concentration series, mik2-1” value ([2]; 1 to 100 nM SCOOP10^B)?
A: The value was “completely abolished in mik2-1”.

Q: What about the “Root length (Fig. 3d)” value ([2]; mik2-1, 1 nM) of the same substance?
A: Its value is 32.99 and 31.78 and 33.56 and 34.62 and 30.06 and 35.81 and 29.29.

Q: And the “Root length (Fig. 3d)” value ([2]; mik2-1, 10 nM)?
A: Its value is 32.32 and 29.96 and 32.75 and 34.52 and 30.66 and 29.77 and 30.84 and 33.97.

Q: What about the “Root length (Fig. 3d)” value ([2]; mik2-1, 100 nM) of the same substance?
A: Its value is 29.63 and 33.44 and 32.76 and 35.81 and 32.02 and 28.87 and 34.13 and 30.25.

Q: And the “Root length (Fig. 3b)” value ([2]; mik2-1)?
A: The value was 25.833 and 26.302 and 24.889 and 27.342 and 26.636 and 27.534 and 28.728 and 25.164 and 27.761.

Q: And the “Root length (Fig. 3e)” value ([2]; mik2-1)?
A: Its value is 22.911 and 21.027 and 23.034 and 25.697 and 26.332 and 26.187 and 22.644 and 27.144 and 23.211 and 23.187.

Q: And the “root growth inhibition in mik2” value ([2]; mik2-1 and mik2-2, 10-day-old seedlings, 1 µM peptide)?
A: Its value is “insensitive to the treatment of SCOOP10^B”.

Q: And the “Root length (Fig. 3b)” value ([2]; mik2-2)?
A: The value was 28.386 and 27.709 and 30.155 and 29.447 and 28.883 and 28.332 and 29.63 and 28.607 and 26.83.

Q: And the “Root length (Fig. 3e)” value ([2]; mik2-2)?
A: The value was 22.343 and 22.532 and 23.158 and 21.859 and 27.286 and 27.619 and 26.253 and 24.148 and 29.659 and 25.362.

Q: And the “ROS production, total luminescence (Fig. 3f)” value (from here on “ROS production … (Fig. 3f)”) (mik2 mutant seedlings; mik2-1, repeat 1)?
A: The value was 113000.

Q: What about the “ROS production … (Fig. 3f)” value (mik2 mutant seedlings; mik2-1, repeat 2) of the same substance?
A: Its value is 107000.

Q: And the “ROS production … (Fig. 3f)” value (mik2 mutant seedlings; mik2-1, repeat 3)?
A: The value was 114000.

Q: And the “ROS production … (Fig. 3f)” value (mik2 mutant seedlings; mik2-2, repeat 1)?
A: The value was 119000.

Q: What about the “ROS production … (Fig. 3f)” value (mik2 mutant seedlings; mik2-2, repeat 2) of the same substance?
A: The value was 155000.

Q: And the “ROS production … (Fig. 3f)” value (mik2 mutant seedlings; mik2-2, repeat 3)?
A: The value was 128000.

Q: And the “ROS production in mik2” value (mik2 mutant seedlings; mik2 mutants, 100 nM SCOOPs or 1 µM FocSCOOPL)?
A: The value was “abolished in mik2 mutants”.

Q: And the “potency in triggering PTI responses” value (Arabidopsis WT seedlings; Ca^2+, ROS, MAPK, compared with other SCOOPs)?
A: Its value is “more potent activities than others in triggering PTI responses”.

Q: And the “ROS production, total luminescence (Fig. 2h)” value (“ROS production … (Fig. 2h)” for short) (Arabidopsis WT seedlings; repeat 1)?
A: The value was 9151950.

Q: And the “ROS production … (Fig. 2h)” value (Arabidopsis WT seedlings; repeat 2)?
A: Its value is 10580582.

Q: What about the “ROS production … (Fig. 2h)” value (Arabidopsis WT seedlings; repeat 3) of the same substance?
A: Its value is 7374543.

Q: What about the “ROS production … (Fig. 3f)” value (Arabidopsis WT seedlings; repeat 1) of the same substance?
A: Its value is 36200000.

Q: What about the “ROS production … (Fig. 3f)” value (Arabidopsis WT seedlings; repeat 2) of the same substance?
A: Its value is 29800000.

Q: And the “ROS production … (Fig. 3f)” value (Arabidopsis WT seedlings; repeat 3)?
A: The value was 21300000.

Q: And the “root browning” value ([3]; WT seedlings, prolonged treatment)?
A: Its value is “led to brown roots”.

Q: And the “root meristem distortion” value ([3]; WT, 5-day-old seedlings, 1 µM, 48 h, PI staining)?
A: The value was “distorted root meristems”.

Q: What about the “MYB51 promoter activity in roots” value [4] of the same substance?
A: Its value is “induced the promoter activities of MYB51”.

Q: What does the source list for “RLASGP(OH)SPRGRGH [PIP1, secreted peptide, ligand of RLK7]”?
A: overlap of MIK2 kinase domain-upregulated genes with PIP1-upregulated genes in WT ([5]; 746 out of 1205 genes of PIP1-treated RLK7^ECD-MIK2^TK/rlk7): 61.9%; expression of SCOOP genes ([5]; WT seedlings): not in WT plants; gene expression fold change ([5]; gene AT1G56242): 13807.76; gene expression fold change ([5]; gene AT1G69920): 473.83; gene expression fold change ([5]; gene AT3G60120): 45141.52; small peptide genes induced ([6]; RLK7^ECD-MIK2^TK/rlk7, 1 µM PIP1): 51 genes; expression of SCOOP genes ([6]; RLK7^ECD-MIK2^TK/rlk7, 1 µM PIP1, 0, 1 and 6 h): induces the expression of SCOOP genes; SCOOP, STMP and SCOOP/STMP-like genes induced ([6]; RLK7^ECD-MIK2^TK/rlk7, 1 µM PIP1, among 51 induced small peptide genes): 18 genes; gene expression fold change ([6]; gene AT1G53080): 194.45; gene expression fold change ([6]; gene AT5G52400): 19374.61; gene expression fold change ([6]; gene AT5G52700): 11109.32; ROS production, total ([7]; RLK7/rlk7 L4, 100 nM PIP1, one-week-old seedlings, repeat 1): 239291 RLU; ROS production, total ([7]; RLK7/rlk7 L4, 100 nM PIP1, one-week-old seedlings, repeat 2): 252204 RLU; ROS production, total ([7]; RLK7/rlk7 L4, 100 nM PIP1, one-week-old seedlings, repeat 3): 283681 RLU; ROS production, total ([7]; RLK7/rlk7 L4, 100 nM PIP1, one-week-old seedlings, repeat 4): 318922 RLU; ROS production, total ([7]; RLK7/rlk7 L5, 100 nM PIP1, one-week-old seedlings, repeat 1): 275783 RLU; ROS production, total ([7]; RLK7/rlk7 L5, 100 nM PIP1, one-week-old seedlings, repeat 2): 220663 RLU; ROS production, total ([7]; RLK7/rlk7 L5, 100 nM PIP1, one-week-old seedlings, repeat 3): 252086 RLU; ROS production, total ([7]; RLK7/rlk7 L5, 100 nM PIP1, one-week-old seedlings, repeat 4): 358908 RLU; ROS production, total ([7]; RLK7ECD-MIK2TK/rlk7 L9, 100 nM PIP1, one-week-old seedlings, repeat 1): 1753777 RLU; ROS production, total ([7]; RLK7ECD-MIK2TK/rlk7 L9, 100 nM PIP1, one-week-old seedlings, repeat 2): 1827311 RLU; ROS production, total ([7]; RLK7ECD-MIK2TK/rlk7 L9, 100 nM PIP1, one-week-old seedlings, repeat 3): 2926668 RLU; ROS production, total ([7]; RLK7ECD-MIK2TK/rlk7 L9, 100 nM PIP1, one-week-old seedlings, repeat 4): 3467034 RLU; ROS production, total ([7]; RLK7ECD-MIK2TK/rlk7 L9, 100 nM PIP1, one-week-old seedlings, repeat 5): 1491639 RLU; ROS production, total ([7]; RLK7ECD-MIK2TK/rlk7 L16, 100 nM PIP1, one-week-old seedlings, repeat 1): 3868648 RLU; ROS production, total ([7]; RLK7ECD-MIK2TK/rlk7 L16, 100 nM PIP1, one-week-old seedlings, repeat 2): 1259772 RLU; ROS production, total ([7]; RLK7ECD-MIK2TK/rlk7 L16, 100 nM PIP1, one-week-old seedlings, repeat 3): 2844613 RLU; ROS production, total ([7]; RLK7ECD-MIK2TK/rlk7 L16, 100 nM PIP1, one-week-old seedlings, repeat 4): 3037378 RLU; ROS production, total ([7]; RLK7ECD-MIK2TK/rlk7 L16, 100 nM PIP1, one-week-old seedlings, repeat 5): 940879 RLU; ROS production ([7]; RLK7/rlk7, 100 nM PIP1): weakly induced ROS production; ROS production ([7]; RLK7^ECD-MIK2^TK/rlk7, 100 nM PIP1): robust production of ROS
